Measurements from the CheMixHub viscosity set.

Experiment: xn = mol fraction of the nth substance listed

Cc1ncc(C[n+]2csc(CCO)c2C)c(N)n1.Cl.[Cl-] + O
Conditions | viscosity [mPa·s]
293.15 K, 101 kPa, x1 = 0.00036 | 1.014
293.15 K, 101 kPa, x1 = 0.00072 | 1.027
293.15 K, 101 kPa, x1 = 0.00108 | 1.041
293.15 K, 101 kPa, x1 = 0.00144 | 1.057
293.15 K, 101.3 kPa, x1 = 0.000445 | 1.015
293.15 K, 101.3 kPa, x1 = 0.000886 | 1.029
293.15 K, 101.3 kPa, x1 = 0.00177 | 1.063
293.15 K, 101.3 kPa, x1 = 0.002215 | 1.08
298.15 K, 101 kPa, x1 = 0.00036 | 0.9013
298.15 K, 101 kPa, x1 = 0.000364 | 0.9024
298.15 K, 101 kPa, x1 = 0.000385 | 0.914
298.15 K, 101 kPa, x1 = 0.000657 | 0.914
298.15 K, 101 kPa, x1 = 0.00072 | 0.9129
298.15 K, 101 kPa, x1 = 0.000731 | 0.929
298.15 K, 101 kPa, x1 = 0.000952 | 0.9244
298.15 K, 101 kPa, x1 = 0.00107 | 0.941
298.15 K, 101 kPa, x1 = 0.00108 | 0.9266
298.15 K, 101 kPa, x1 = 0.00125 | 0.9372
298.15 K, 101 kPa, x1 = 0.00144 | 0.9406
298.15 K, 101 kPa, x1 = 0.00145 | 0.96
298.15 K, 101 kPa, x1 = 0.00155 | 0.9488
298.15 K, 101 kPa, x1 = 0.001658 | 0.9532
298.15 K, 101 kPa, x1 = 0.001695 | 0.9545
298.15 K, 101 kPa, x1 = 0.001856 | 0.959
298.15 K, 101 kPa, x1 = 0.001922 | 0.98
298.15 K, 101 kPa, x1 = 0.002519 | 0.9786
298.15 K, 101 kPa, x1 = 0.002881 | 1.013
298.15 K, 101 kPa, x1 = 0.003713 | 1.05
298.15 K, 101 kPa, x1 = 0.003828 | 1.034
298.15 K, 101 kPa, x1 = 0.004291 | 1.055
298.15 K, 101 kPa, x1 = 0.004534 | 1.083
298.15 K, 101 kPa, x1 = 0.005245 | 1.097
298.15 K, 101 kPa, x1 = 0.005408 | 1.111
298.15 K, 101 kPa, x1 = 0.007149 | 1.185
298.15 K, 101 kPa, x1 = 0.00796 | 1.228
298.15 K, 101 kPa, x1 = 0.009056 | 1.254
298.15 K, 101 kPa, x1 = 0.009864 | 1.281
298.15 K, 101.3 kPa, x1 = 0.000445 | 0.902
298.15 K, 101.3 kPa, x1 = 0.000886 | 0.916
298.15 K, 101.3 kPa, x1 = 0.00133 | 0.931
298.15 K, 101.3 kPa, x1 = 0.00177 | 0.947
298.15 K, 101.3 kPa, x1 = 0.002215 | 0.963
303.15 K, 101 kPa, x1 = 0.00036 | 0.8078
303.15 K, 101 kPa, x1 = 0.00072 | 0.8185
303.15 K, 101 kPa, x1 = 0.00108 | 0.8322
303.15 K, 101 kPa, x1 = 0.00144 | 0.8443
303.15 K, 101.3 kPa, x1 = 0.000445 | 0.808
303.15 K, 101.3 kPa, x1 = 0.000886 | 0.822
303.15 K, 101.3 kPa, x1 = 0.00133 | 0.836
303.15 K, 101.3 kPa, x1 = 0.00177 | 0.85
303.15 K, 101.3 kPa, x1 = 0.002215 | 0.864
308.15 K, 101 kPa, x1 = 0.00036 | 0.729
308.15 K, 101 kPa, x1 = 0.000364 | 0.7301
308.15 K, 101 kPa, x1 = 0.000657 | 0.7393
308.15 K, 101 kPa, x1 = 0.00072 | 0.7391
308.15 K, 101 kPa, x1 = 0.000952 | 0.7485
308.15 K, 101 kPa, x1 = 0.00108 | 0.7506
308.15 K, 101 kPa, x1 = 0.00125 | 0.7576
308.15 K, 101 kPa, x1 = 0.00144 | 0.7631
308.15 K, 101 kPa, x1 = 0.00155 | 0.768
308.15 K, 101 kPa, x1 = 0.001658 | 0.7726
308.15 K, 101 kPa, x1 = 0.001695 | 0.7711
308.15 K, 101 kPa, x1 = 0.001856 | 0.7772
308.15 K, 101 kPa, x1 = 0.002519 | 0.8005
308.15 K, 101 kPa, x1 = 0.003828 | 0.837
308.15 K, 101 kPa, x1 = 0.004291 | 0.8515
308.15 K, 101 kPa, x1 = 0.005245 | 0.8799
308.15 K, 101.3 kPa, x1 = 0.000445 | 0.73
308.15 K, 101.3 kPa, x1 = 0.000886 | 0.743
308.15 K, 101.3 kPa, x1 = 0.00177 | 0.77
308.15 K, 101.3 kPa, x1 = 0.002215 | 0.783
313.15 K, 101 kPa, x1 = 0.00036 | 0.6623
313.15 K, 101 kPa, x1 = 0.00072 | 0.6722
313.15 K, 101 kPa, x1 = 0.00108 | 0.6831
313.15 K, 101 kPa, x1 = 0.00144 | 0.6947
313.15 K, 101.3 kPa, x1 = 0.000445 | 0.664
313.15 K, 101.3 kPa, x1 = 0.000886 | 0.676
313.15 K, 101.3 kPa, x1 = 0.00133 | 0.689
313.15 K, 101.3 kPa, x1 = 0.00177 | 0.702
313.15 K, 101.3 kPa, x1 = 0.002215 | 0.713
318.15 K, 101 kPa, x1 = 0.000364 | 0.6037
318.15 K, 101 kPa, x1 = 0.000657 | 0.6116
318.15 K, 101 kPa, x1 = 0.000952 | 0.6196
318.15 K, 101 kPa, x1 = 0.00125 | 0.6275
318.15 K, 101 kPa, x1 = 0.00155 | 0.6343
318.15 K, 101 kPa, x1 = 0.001658 | 0.6377
318.15 K, 101 kPa, x1 = 0.001695 | 0.6389
318.15 K, 101 kPa, x1 = 0.001856 | 0.6413
318.15 K, 101 kPa, x1 = 0.002519 | 0.6591
318.15 K, 101 kPa, x1 = 0.003828 | 0.6919
318.15 K, 101 kPa, x1 = 0.005245 | 0.7256
318.15 K, 101.3 kPa, x1 = 0.000445 | 0.606
318.15 K, 101.3 kPa, x1 = 0.000886 | 0.618
318.15 K, 101.3 kPa, x1 = 0.00133 | 0.63
318.15 K, 101.3 kPa, x1 = 0.00177 | 0.642
318.15 K, 101.3 kPa, x1 = 0.002215 | 0.653
